Reference: the NIST ThermoML archive (doi:10.1021/acs.jced.8b00854)
Numbers after ± are expanded uncertainties.

Legend:
[1] = xn = mol fraction of the nth substance listed; conditions: 100 kPa, Liquid, Vibrating tube method
[2] = refractive index (Na D-line) (dimensionless); xn = mol fraction of the nth substance listed; conditions: 100 kPa, Liquid, Standard Abbe refractometry

`CCCCCCCCOS(=O)(=O)[O-].CCCCn1cc[n+](C)c1` [1-butyl-3-methylimidazolium octyl sulfate] + O showed a mass density ([1]; 293.15 K, x1 = 0.1002) of 1048.11 ± 2 kg/m3, a mass density ([1]; 293.15 K, x1 = 0.2002) of 1060.01 ± 2 kg/m3 and a mass density ([1]; 293.15 K, x1 = 0.3004) of 1063.92 ± 2 kg/m3. It also gave a mass density ([1]; 293.15 K, x1 = 0.4004) of 1065.86 ± 2 kg/m3, a mass density ([1]; 293.15 K, x1 = 0.501) of 1066.97 ± 2 kg/m3 and a mass density ([1]; 293.15 K, x1 = 0.5998) of 1067.84 ± 2 kg/m3. It also gave a mass density ([1]; 293.15 K, x1 = 0.6988) of 1068.5 ± 2 kg/m3, a mass density ([1]; 293.15 K, x1 = 0.8) of 1069.33 ± 2 kg/m3 and a mass density ([1]; 293.15 K, x1 = 0.9018) of 1070.47 ± 2 kg/m3. It also gave a mass density ([1]; 303.15 K, x1 = 0.1002) of 1041.72 ± 2 kg/m3, a mass density ([1]; 303.15 K, x1 = 0.2002) of 1052.71 ± 2 kg/m3 and a mass density ([1]; 303.15 K, x1 = 0.3004) of 1057.16 ± 2 kg/m3. The mass density ([1]; 303.15 K, x1 = 0.4004) was 1059.15 ± 2 kg/m3, the mass density ([1]; 303.15 K, x1 = 0.501) was 1060.3 ± 2 kg/m3 and the mass density ([1]; 303.15 K, x1 = 0.5998) was 1061.29 ± 2 kg/m3. It also gave a mass density ([1]; 303.15 K, x1 = 0.6988) of 1061.97 ± 2 kg/m3, a mass density ([1]; 303.15 K, x1 = 0.8) of 1062.8 ± 2 kg/m3 and a mass density ([1]; 303.15 K, x1 = 0.9018) of 1063.98 ± 2 kg/m3. The mass density ([1]; 313.15 K, x1 = 0.1002) was 1035.13 ± 2 kg/m3, the mass density ([1]; 313.15 K, x1 = 0.2002) was 1046.53 ± 2 kg/m3 and the mass density ([1]; 313.15 K, x1 = 0.3004) was 1050.37 ± 2 kg/m3. The mass density ([1]; 313.15 K, x1 = 0.4004) was 1052.42 ± 2 kg/m3, the mass density ([1]; 313.15 K, x1 = 0.501) was 1053.61 ± 2 kg/m3 and the mass density ([1]; 313.15 K, x1 = 0.5998) was 1054.71 ± 2 kg/m3. The mass density ([1]; 313.15 K, x1 = 0.6988) was 1055.42 ± 2 kg/m3, the mass density ([1]; 313.15 K, x1 = 0.8) was 1056.28 ± 2 kg/m3 and the mass density ([1]; 313.15 K, x1 = 0.9018) was 1057.53 ± 2 kg/m3. It also gave a mass density ([1]; 323.15 K, x1 = 0.1002) of 1028.37 ± 2 kg/m3, a mass density ([1]; 323.15 K, x1 = 0.2002) of 1039.57 ± 2 kg/m3 and a mass density ([1]; 323.15 K, x1 = 0.3004) of 1043.56 ± 2 kg/m3. For the same compound, the mass density ([1]; 323.15 K, x1 = 0.4004) was 1045.67 ± 2 kg/m3, the mass density ([1]; 323.15 K, x1 = 0.501) was 1046.92 ± 2 kg/m3 and the mass density ([1]; 323.15 K, x1 = 0.5998) was 1048.14 ± 2 kg/m3. For the same compound, the mass density ([1]; 323.15 K, x1 = 0.6988) was 1048.87 ± 2 kg/m3, the mass density ([1]; 323.15 K, x1 = 0.8) was 1049.77 ± 2 kg/m3 and the mass density ([1]; 323.15 K, x1 = 0.9018) was 1051.07 ± 2 kg/m3. The mass density ([1]; 333.15 K, x1 = 0.1002) was 1021.44 ± 2 kg/m3, the mass density ([1]; 333.15 K, x1 = 0.2002) was 1032.54 ± 2 kg/m3 and the mass density ([1]; 333.15 K, x1 = 0.3004) was 1036.7 ± 2 kg/m3. The mass density ([1]; 333.15 K, x1 = 0.4004) was 1038.91 ± 2 kg/m3, the mass density ([1]; 333.15 K, x1 = 0.501) was 1040.19 ± 2 kg/m3 and the mass density ([1]; 333.15 K, x1 = 0.5998) was 1041.4 ± 2 kg/m3. For the same compound, the mass density ([1]; 333.15 K, x1 = 0.6988) was 1042.35 ± 2 kg/m3, the mass density ([1]; 333.15 K, x1 = 0.8) was 1043.27 ± 2 kg/m3 and the mass density ([1]; 333.15 K, x1 = 0.9018) was 1044.63 ± 2 kg/m3. The mass density ([1]; 343.15 K, x1 = 0.1002) was 1014.33 ± 2 kg/m3, the mass density ([1]; 343.15 K, x1 = 0.2002) was 1025.58 ± 2 kg/m3 and the mass density ([1]; 343.15 K, x1 = 0.3004) was 1029.67 ± 2 kg/m3. The mass density ([1]; 343.15 K, x1 = 0.4004) was 1032.07 ± 2 kg/m3, the mass density ([1]; 343.15 K, x1 = 0.501) was 1033.23 ± 2 kg/m3 and the mass density ([1]; 343.15 K, x1 = 0.5998) was 1034.54 ± 2 kg/m3. The mass density ([1]; 343.15 K, x1 = 0.6988) was 1035.66 ± 2 kg/m3, the mass density ([1]; 343.15 K, x1 = 0.8) was 1036.82 ± 2 kg/m3 and the mass density ([1]; 343.15 K, x1 = 0.9018) was 1038.23 ± 2 kg/m3. For the same compound, the refractive index ([2]; 293.15 K, x1 = 0.1002) was 1.4235 ± 0.0027, the refractive index ([2]; 293.15 K, x1 = 0.2002) was 1.4455 ± 0.0016 and the refractive index ([2]; 293.15 K, x1 = 0.3004) was 1.4555 ± 0.0016. For the same compound, the refractive index ([2]; 293.15 K, x1 = 0.4004) was 1.461 ± 0.0016, the refractive index ([2]; 293.15 K, x1 = 0.501) was 1.464 ± 0.0016 and the refractive index ([2]; 293.15 K, x1 = 0.5998) was 1.467 ± 0.0016. The refractive index ([2]; 293.15 K, x1 = 0.6988) was 1.4685 ± 0.0017, the refractive index ([2]; 293.15 K, x1 = 0.8) was 1.47 ± 0.0016 and the refractive index ([2]; 293.15 K, x1 = 0.9018) was 1.4705 ± 0.0016. It also gave a refractive index ([2]; 303.15 K, x1 = 0.1002) of 1.422 ± 0.002, a refractive index ([2]; 303.15 K, x1 = 0.2002) of 1.4435 ± 0.0016 and a refractive index ([2]; 303.15 K, x1 = 0.3004) of 1.453 ± 0.002. For the same compound, the refractive index ([2]; 303.15 K, x1 = 0.4004) was 1.4585 ± 0.0016, the refractive index ([2]; 303.15 K, x1 = 0.501) was 1.462 ± 0.002 and the refractive index ([2]; 303.15 K, x1 = 0.5998) was 1.4645 ± 0.0016. It also gave a refractive index ([2]; 303.15 K, x1 = 0.6988) of 1.466 ± 0.002, a refractive index ([2]; 303.15 K, x1 = 0.8) of 1.4675 ± 0.0017 and a refractive index ([2]; 303.15 K, x1 = 0.9018) of 1.4685 ± 0.0017. The refractive index ([2]; 313.15 K, x1 = 0.1002) was 1.4215 ± 0.0016, the refractive index ([2]; 313.15 K, x1 = 0.2002) was 1.4415 ± 0.0016 and the refractive index ([2]; 313.15 K, x1 = 0.3004) was 1.4525 ± 0.0016. It also gave a refractive index ([2]; 313.15 K, x1 = 0.4004) of 1.457 ± 0.0016, a refractive index ([2]; 313.15 K, x1 = 0.501) of 1.4595 ± 0.0016 and a refractive index ([2]; 313.15 K, x1 = 0.5998) of 1.462 ± 0.0016. It also gave a refractive index ([2]; 313.15 K, x1 = 0.6988) of 1.4635 ± 0.0017, a refractive index ([2]; 313.15 K, x1 = 0.8) of 1.465 ± 0.0017 and a refractive index ([2]; 313.15 K, x1 = 0.9018) of 1.466 ± 0.0017. It also gave a refractive index ([2]; 323.15 K, x1 = 0.1002) of 1.421 ± 0.0016, a refractive index ([2]; 323.15 K, x1 = 0.2002) of 1.4405 ± 0.0016 and a refractive index ([2]; 323.15 K, x1 = 0.3004) of 1.45 ± 0.0016. For the same compound, the refractive index ([2]; 323.15 K, x1 = 0.4004) was 1.4555 ± 0.0016, the refractive index ([2]; 323.15 K, x1 = 0.501) was 1.457 ± 0.0016 and the refractive index ([2]; 323.15 K, x1 = 0.5998) was 1.46 ± 0.0016. It also gave a refractive index ([2]; 323.15 K, x1 = 0.6988) of 1.461 ± 0.0017, a refractive index ([2]; 323.15 K, x1 = 0.8) of 1.462 ± 0.0017 and a refractive index ([2]; 323.15 K, x1 = 0.9018) of 1.4635 ± 0.0017. For the same compound, the refractive index ([2]; 333.15 K, x1 = 0.1002) was 1.419 ± 0.0016, the refractive index ([2]; 333.15 K, x1 = 0.2002) was 1.44 ± 0.0016 and the refractive index ([2]; 333.15 K, x1 = 0.3004) was 1.4495 ± 0.0016. It also gave a refractive index ([2]; 333.15 K, x1 = 0.4004) of 1.4535 ± 0.0016, a refractive index ([2]; 333.15 K, x1 = 0.501) of 1.4545 ± 0.0016 and a refractive index ([2]; 333.15 K, x1 = 0.5998) of 1.4575 ± 0.0016. It also gave a refractive index ([2]; 333.15 K, x1 = 0.6988) of 1.4585 ± 0.0016, a refractive index ([2]; 333.15 K, x1 = 0.8) of 1.46 ± 0.0016 and a refractive index ([2]; 333.15 K, x1 = 0.9018) of 1.461 ± 0.0017. The refractive index ([2]; 343.15 K, x1 = 0.1002) was 1.419 ± 0.0029, the refractive index ([2]; 343.15 K, x1 = 0.2002) was 1.4395 ± 0.0017 and the refractive index ([2]; 343.15 K, x1 = 0.3004) was 1.4465 ± 0.0017. It also gave a refractive index ([2]; 343.15 K, x1 = 0.4004) of 1.452 ± 0.0017, a refractive index ([2]; 343.15 K, x1 = 0.501) of 1.453 ± 0.0016 and a refractive index ([2]; 343.15 K, x1 = 0.5998) of 1.4565 ± 0.0016. For the same compound, the refractive index ([2]; 343.15 K, x1 = 0.6988) was 1.457 ± 0.0016, the refractive index ([2]; 343.15 K, x1 = 0.8) was 1.458 ± 0.0016 and the refractive index ([2]; 343.15 K, x1 = 0.9018) was 1.459 ± 0.0016.
